PubChem BioAssay AID2423 (Broad Institute, 2010)
Inconclusive results are not listed. Calls of active or inactive are those of the source. No rule for the calls is given here.

system: C. albicans CaCi-8 + fluconazole, Alamar Blue growth, 48 h; assay: resistant C. albicans growth inhibition with fluconazole, dose response, CaCi-8 strain, Alamar Blue fluorescence (AID 2423)

| Compound | EC50 |
| --- | --- |
| CCC1=NN(C(=O)c2ccccc2O)C(O)(c2ccccc2)C1 (stereo unspecified) | 7370 nM |
| Oc1ccc(N=Nc2ccccc2C(F)(F)F)c2cccnc12 | 1080 nM |
| CN=c1scc(-c2cccs2)n1/N=C/c1ccc(O)c(O)c1O | 14500 nM |
| Nc1ncnc(Sc2ncccn2)c1[N+](=O)[O-] | 484 nM |
| Oc1c(C(Nc2cccc(C(F)(F)F)c2)c2cccnc2)ccc2cccnc12 (stereo unspecified) | 2070 nM |
| O=C(Oc1c(Cl)cc(Cl)c2cccnc12)c1ccco1 | 465 nM |
| O=C(NCc1ccco1)c1sc(=S)n2c1[nH]c(=O)c1ccccc12 | 212 nM |
| CN(C)c1ccc(NC(=O)C2C3C=CC(C3)C2C(=O)O)cc1 (stereo unspecified) | > 16000 nM (inactive) |
| O=C(O)c1ccc(CN2C(=O)CSC2=S)cc1 | > 15000 nM (inactive) |
| Cc1noc(NC(=O)c2ccc(Cl)c(Cl)c2)c1Cl | > 15000 nM (inactive) |
| CC(C)(C)C(=O)NC(=S)NNC(=O)c1ccc(-c2ccccc2)cc1 | < 120 nM |
| Cc1ccc2occ(/C=N/NC(=O)c3ccccc3O)c(=O)c2c1 | 15100 nM |
| O=C(NCc1ccccc1)c1sc(=S)n2c1[nH]c(=O)c1ccccc12 | 948 nM |
| O=C(c1ccccc1)C(CN1CCCC1)c1ccccc1 (stereo unspecified) | > 16000 nM (inactive) |
| CCOc1ccc(C(Nc2cccnc2)c2cc(Cl)c3cccnc3c2O)cc1 (stereo unspecified) | 930 nM |
| COc1cccc(C(NC(C)=O)c2ccc3cccnc3c2O)c1 (stereo unspecified) | 1730 nM |
| Cn1c(N2CCOCC2)c(/C=N/OC(=O)c2ccc(F)cc2)c2ccccc21 | 630 nM |
| CCOc1ccc(-c2ccc(NS(=O)(=O)c3ccc([N+](=O)[O-])cc3)cc2)nn1 | 2650 nM |
| CCOc1ccc(-n2c(O)c(/C=N/Nc3nc(C)cc(C)n3)c3ccccc3c2=O)cc1 | > 15000 nM (inactive) |

| Compound | EC50 |
| --- | --- |
| COCCn1c(=O)[nH]c(=O)c2cc(C(=O)c3cc(Cl)ccc3O)cnc21 | 1280 nM |
| CSc1ccc(/C=C/C(=O)Nc2ccccc2)cc1 | > 15000 nM (inactive) |
| CC1(C)C(O)=C(c2nc3ccccc3[nH]2)C(=N)N1c1ccccc1 | 9820 nM |
| Cc1ccc(S(=O)(=O)C(C#N)c2nc3ccccc3nc2N2CCN(C)CC2)cc1C (stereo unspecified) | 16000 nM |
| Oc1c(C(Nc2nc3ccccc3s2)c2ccco2)ccc2cccnc12 (stereo unspecified) | 1980 nM |
| O=C(c1ccc(C(=O)N2CCCc3ccccc32)s1)N1CCCc2ccccc21 | 2990 nM |
| COc1cccc(/C=N/NC(=O)c2[nH]nc3c2CCc2ccccc2-3)c1O | 857 nM |
| O=C(O)CCCCCN1C(=O)/C(=C\c2ccncc2)SC1=S | 898 nM |
| Cc1cccc(NC(=S)NNC(=O)c2csc(C(C)C)c2)c1 | 4240 nM |
| O=c1nc(/C=C/c2cc([N+](=O)[O-])ccc2Cl)cc(C(F)(F)F)[nH]1 | 946 nM |
| O=C(Nc1cccc(-c2nc3ccccc3s2)c1)c1cc(-n2cnnc2)ccc1Cl | 1510 nM |
| Cc1c(Cl)ccc2c1NC(=O)[C@]21N[C@@H](Cc2ccccc2)[C@H]2C(=O)N(c3ccc(F)cc3)C(=O)[C@H]21 | < 120 nM |
| Cc1ccc(C(=O)NC(=S)NNC(=O)c2ccccc2[N+](=O)[O-])cc1 | > 15000 nM (inactive) |
| COc1ccc(-n2c(-c3ccc(Br)cc3)c[n+]3c2SC(C)C3)cc1 (stereo unspecified) | 6770 nM |
| CCCC(=O)NC(c1ccccc1OC)c1ccc2cccnc2c1O (stereo unspecified) | 1040 nM |
| C=CC(C)(C)c1c(O)c(CC=C(C)C)c(O)c2c(=O)c3ccc(O)c(O)c3oc12 | 3410 nM |
| Cc1cccc2sc(NNC(=O)c3cc(-c4cccs4)nc4ccccc34)nc12 | 583 nM |
| Cc1ccc(-n2ncc(Br)c(Br)c2=O)cc1 | 855 nM |
| COc1ccc(CCNc2ncnc3sc(C)cc23)cc1OC | 1610 nM |

| Compound | EC50 |
| --- | --- |
| CCOc1ccc(CN(C(=O)c2oc3ccccc3c2C)C2CCS(=O)(=O)C2)cc1 (stereo unspecified) | > 16000 nM (inactive) |
| CC(=O)c1ncnn1CC(=O)c1ccc(Cl)cc1Cl | > 16000 nM (inactive) |
| Cn1c(/C=C/c2cccc([N+](=O)[O-])c2)c([N+](=O)[O-])c(=O)n(C)c1=O | 2530 nM |
| COc1ccc(C2N=C(Nc3ccc(C)cc3)Nc3nc(C)cc(=O)n32)cc1 (stereo unspecified) | > 16000 nM (inactive) |
| CC12CCC(C(=O)Nc3ncc([N+](=O)[O-])s3)(OC1=O)C2(C)C (stereo unspecified) | > 16000 nM (inactive) |
| N#Cc1c(-c2ccc(Cl)cc2)cc(-c2ccccc2)nc1SCC(=O)O | 1200 nM |
| CCOC(=O)c1ccc(NC(=O)Cn2ncc(Cl)c(Cl)c2=O)cc1 | 894 nM |
| CC(C)C(=O)NC(c1ccco1)c1ccc2cccnc2c1O (stereo unspecified) | 1940 nM |
| Oc1[nH]c2ccc(Br)cc2c1N=NC(=S)N1CCOCC1 | 3100 nM |
| CS/C(=N\S(=O)(=O)c1cccs1)Nc1ccc(Br)cc1F | 801 nM |
| COc1cccc(-c2nc(NC(C)C)c3ccccc3n2)c1O | 3200 nM |
| CCN(CC)C(=O)/C(=C/c1ccc2c(c1)OCO2)NC(=O)c1ccc(Br)cc1 | 1200 nM |
| Cc1ccccc1/C=C1\SC(=S)N(/N=C/c2cc([N+](=O)[O-])ccc2O)C1=O | 4060 nM |
| O=C(COc1ccccc1)NNC(=S)NC(=O)c1ccc(Cl)cc1Cl | 4840 nM |
| COc1ccc(C2C(C#N)=C(N)Oc3c2ccc2cccnc32)cc1OC (stereo unspecified) | 952 nM |
| CC[n+]1cc(C)ccc1/C=C/c1ccc(N(C)C)cc1 | 1410 nM |
| O=c1cc(CSc2ccc(Cl)cc2)nc(-c2ccccn2)[nH]1 | 531 nM |
| Cc1ccc(C(=O)CC(=O)c2ccccc2C)c(O)c1 | 1900 nM |
